Experimental data: patent US20140364417A1, “METHOD OF TREATING ATRIAL FIBRILLATION” (Gilead Sciences, Inc., priority 2013, published 2014)
Several values for one entry are separate records, joined by “and”; a condition that tells them apart may be missing. Identical values can stand only once. Entries after “also recorded” stand apart in the source; their conditions may differ.

What was measured:
[1] = test system: Acetylcholine Mediated AF Model in Pigs; assay: Acetylcholine mediated AF model in pigs: dominant frequency, ventricular rate, arterial blood pressure during AF; type: in vivo, pig; details: for effect on arterial blood pressure during AF: FIG. 3 and FIG. 4; for effect on dominant frequency of atrial fibrillation / effect on ventricular rate during atrial fibrillation: ivabradine 0.25 mg/kg i.v. bolus; for effect on dominant frequency of atrial fibrillation: ranolazine 2.4 mg/kg bolus + 0.135 mg/kg/min; for effect on dominant frequency of atrial fibrillation / dominant frequency of AF after drug: FIG. 8; for effect on ventricular rate during atrial fibrillation: FIG. 9; for ventricular rate during AF after drug / reduction of ventricular rate during AF: ivabradine 0.25 mg/kg; for ventricular rate during AF after drug: before drug 269.7±6.2 (ivabradine) and 227.3±14.7 (ranolazine, combination); for dominant frequency of AF after drug: series with ivabradine 0.25 mg/kg, baseline 10.3±1.4 (ivabradine) and 9.0±0.8 (ranolazine, combination); for reduction of ventricular rate during AF: alone or shortly after ranolazine
Method: Data were gathered from male Yorkshire pigs (n=16) weighing 35±2 kg (mean±SEM). The animals were preanesthetized with telazol (4.7 mg/kg, intramuscularly) and then anesthetized with alpha-chloralose (100 mg/kg, i.v., bolus followed by 40 mg/kg/h, i.v., continuous infusion). The animals were intubated and ventilation was maintained between 10-16 breaths/min with volumes between 400-500 mL. Vital signs including core body temperature, heart rate, and oxygen saturation were continuously monitored.
The right and left femoral veins were cannulated with 7Fr introducer sheaths using the Seldinger technique to insert catheters in the right atrial (RA) appendage for pacing and for positioning the intrapericardial catheter. Arterial blood pressure was continuously monitored from a femoral arterial sheath, and intravenous fluids were administered through the ear vein. The electrocardiogram (ECG) was recorded with a Prucka Cardiolab workstation (GE Medical Systems, Milwaukee, Wis.) from atrial and ventricular sites.
Ranolazine was given as a 2.4 mg/kg, i.v., bolus followed by continuous infusion of 0.135 mg/kg/min, i.v.
A nonsteerable, quadripolar electrode catheter (Bard Electrophysiology, Lowell Mass.) was placed in the right atrium (RA) via the femoral vein and a second quadripolar electrode catheter in the right ventricle via the jugular vein. A bipolar electrode was placed in the non-coronary cusp of the aorta through the left carotid artery to record the His bundle electrogram. A pigtail catheter was inserted in the left ventricle via the left femoral artery to record and calculate contractility [left ventricular dP/dt]. Transatrial access was employed to deliver acetylcholine (ACh) into the pericardial space. Specifically, a small puncture was made in the RA appendage with the stiff end of a coronary angioplasty guidewire (0.014-inch Wizdom guidewire, Cordis, Miami, Fla., USA) placed within the lumen of a soft infusion catheter (0.038-inch SOS straight-tip, open-ended angiographic guidewire, Bard Electrophysiology). This wire-within-wire system was advanced as a unit into an 8Fr multipurpose guide catheter (MP2, Boston Scientific, Boston Mass.) previously positioned in the RA appendage via a femoral vein under fluoroscopic guidance and into the pericardial space. The infusion catheter was left in the pericardial space for delivery of ACh and the inner guidewire was removed. Conformation of the infusion catheter on fluoroscopy to the curvature of the heart verified its location within the pericardial space. All of the pericardial fluid was then aspirated with the infusion catheter. Intrapericardial access is associated with a hematocrit <2%, indicating minimum trauma from the atrial puncture (Kumar et al., J Cardiovasc Electrophysiol 2009; 20:796-802). The presence of acetylcholinesterase can rapidly degrade ACh and prevent a sustained response to this neurotransmitter.
Atrial fibrillation (AF) was defined as an irregular atrial rhythm with an average cycle length <150 msec at all atrial sites, whereas atrial flutter was defined as a regular atrial rhythm with fixed cycle length >150 msec at all atrial sites. After baseline electrical testing was performed, AF initiation was attempted by decremental burst pacing at each atrial site down to loss of 1:1 capture. ACh (1 mL of 100 mM solution) along with a 1-mL saline flush was injected into the pericardial space via the transatrial infusion catheter. […] After 5 minutes of AF, the pericardial space was lavaged with saline (20 mL) via the transatrial pericardial catheter. At the end of lavage, no further pericardial fluid could be removed. Lavage was performed after 5 minutes of AF in order to minimize the mild systemic hypotension that was occasionally associated with ACh administration. The time to spontaneous termination of AF was recorded.
Dominant frequency of AF was analyzed during the 6th minute after AF initiation using the intracardiac electrograms from the right atrial appendage. […]

[2] = test system: Guinea Pig Isolated Hearts; assay: S-H interval (AV nodal conduction) in guinea pig isolated, Langendorff-perfused paced hearts; details: for second-degree AV block (dropped beats): isolated paced hearts, drug alone; for increase in the S-H interval compared to control (no drug): ivabradine 0.1 μM, ranolazine 2 μM, alone or combined, pacing rate of 4 and 5 Hz, FIG. 1
Text: To test the combined effects of ranolazine and ivabradine on AV conduction, the following experimental procedures were employed.
Guinea pigs (Hartley) of either sex weighing 300-350 g were anesthetized by inhalation of isoflurane. The chest of a guinea pig was cut open, and the heart was quickly removed and rinsed in ice-cold modified Krebs-Henseleit (K-H) solution. The contents of the modified K-H solution were (in mM) 117.9 NaCl, 4.8 KCl, 2.5 CaCl2, 1.18 MgSO4, 1.2 KH2PO4, 0.5 Na2 EDTA, 0.14 ascorbic acid, 5.5 dextrose, 2.0 pyruvic acid (sodium salt), and 25 NaHCO3. The K-H solution was continuously gassed with 95% O2-5% CO2, and the pH was adjusted to a value of 7.4.
To perfuse the heart by the Langendorff method, the transected aorta was slid onto a glass cannula and secured by a ligature. Retrograde perfusion of the aorta was initiated immediately at a constant flow of 10 mL/min with modified K-H solution warmed to 37.0±0.5° C. A side port in the cannula was used to connect the perfusion line to a pressure transducer (AD Instruments, Australia) for measurement of coronary perfusion pressure (CPP). To facilitate the exit of fluid from the left ventricle, the leaflets of the mitral valve were trimmed with fine spring-handled scissors. Hearts were allowed to beat spontaneously in experiments to measure heart rate, or paced at a constant rate using external electrodes, in experiments to measure AV conduction time. After completion of dissection and instrumentation, stimulus-to-H is bundle (S-H) interval was monitored continuously. Each heart was allowed to equilibrate for 20-40 min before the administration of drug. Experimental interventions were always preceded and followed by control measurements.
To facilitate the recording of a drug effect on the S-H interval, parts of the left and right atrial tissues, including the region of the sinoatrial node, were removed, both to decrease the spontaneous heart rate and to expose the atrial septum for electrode placement. A bipolar Teflon-coated electrode was placed in the wall of the intra-atrial septum to pace the heart. […] Stimuli were provided by a stimulation generator (model 48, Grass Instruments, W. Warwick, R I) and delivered to the heart through a stimulus isolation unit as square wave pulses of 3 msec duration and at least twice the threshold intensity.
A His bundle electrogram was recorded using a Teflon-coated unipolar electrode placed in the right side of the interatrial septum adjacent to the AV junction. […]
Ivabradine (Iva), ranolazine (Ran) or the combination thereof was infused to the hearts. Each concentration of Iva was infused for about 20 min to allow a steady-state response to be recorded, whereas each concentration of ranolazine was infused for 10 min to allow a steady-state response to be recorded. […]

SMILES	change in arterial blood pressure during AF versus control (Δ Control/drug) ([1]; FIG. 3)	effect on arterial blood pressure during AF [1]	effect on dominant frequency of atrial fibrillation [1]	effect on ventricular rate during atrial fibrillation [1]	ventricular rate during AF after drug [1]	dominant frequency of AF after drug [1]	second-degree AV block (dropped beats) [2]	increase in the S-H interval compared to control (no drug) [2]	reduction of ventricular rate during AF [1]	reduction of ventricular rate during AF ([1]; 30 min after drug infusion)
COc1ccccc1OCC(O)CN1CCN(CC(=O)Nc2c(C)cccc2C)CC1 (racemic) [ranolazine, (±)-N-(2,6-dimethylphenyl)-4-[2-hydroxy-3-(2-methoxyphenoxy)-propyl]-1-piperazineacetamide]	3.36 mmHg	Neither ivabradine (FIG. 4) nor ranolazine (FIG. 3) given alone improves; also recorded: no significant improvement	neither drug alone was effective	not reduced; also recorded: did not	197.1±17.4 beats/min	7.8±0.9 Hz	without causing second-degree AV block	small but significant increase	–	–
COc1cc2c(cc1OC)CC(=O)N(CCCN(C)C[C@H]1Cc3cc(OC)c(OC)cc31)CC2 [ivabradine, 3-{3-[{[(7S)-3,4-dimethoxybicyclo[4.2.0]octa-1,3,5-trien-7-yl]methyll}-(methyl)amino]propyl}-7,8-dimethoxy-1,3,4,5-tetrahydro-2H-3-benzapenin-2-one]	–	Neither ivabradine (FIG. 4) nor ranolazine (FIG. 3) given alone improves; also recorded: small, not significant decrease	neither drug alone was effective	lowered ventricular rate	247.2±9.5 beats/min	9±0.7 Hz	without causing second-degree AV block	small but significant increase	9%	22.5±6.0 beats/min and 22.53±6.0 beats/min
